Values joined by “and” are separate entries in the source; they are usually repeats but may differ in a detail not shown here. Equal entries are not always repeated.
What was measured:
[1] = system: B16 melanoma nodules; test: In vivo biodistribution and tumor uptake of 99mTc complexes in C57B16 mice with B16 melanoma nodules; details: for mel/blood: melanoma/blood ratio; for mel/liver: melanoma/liver ratio; for mel/lung: melanoma/lung ratio; for mel/spleen: melanoma/spleen ratio
Experimental: The biodistribution data including melanoma/nontumor (M/NT) ratios for selected organs, summarized in Table 1 as percentage injected dose per gram (% ID/g)
To study the tumor uptake of radiolabeled metal complexes, in vivo, biodistribution experiments at 1 h after their administration were carried out in C57B16 male mice with palpable B16 melanoma nodules.

[2] = system: B16F10 melanoma tumors; test: In vivo biodistribution of 99mTc complexes in C57B16 mice bearing B16F10 melanoma tumors; details: for mel/blood: melanoma/blood ratio; for mel/liver: melanoma/liver ratio; for mel/lung: melanoma/lung ratio; for mel/spleen: melanoma/spleen ratio
Experimental: To study the tumor uptake of ^99mTc complexes, ^99mTc-Z2-^99mTc-Z4, in vivo biodistribution experiment at 1, 3, 6 hours post intra-venous injection of the ^99mTc-complex were carried out in C57B16 mice bearing B16F10 melanoma tumors. The biodistribution data including melanoma/nontumor (M/NT) ratios for selected organs are summarized in Table 2 as percentage injected dose per gram (% ID/g) (Table 2). […] This is due to washout from no-tumor organs and increased retention in the tumor.

For `CCN(CC)CC[N+]12CC[S][99Tc-]13(=[O])[S]CC(=O)[N]3CC2` (centres unmarked) [^99mTc-27, Iso-[^99mTcOAADT]-(CH2)2-NEt2)], the Eyes ([1]; 1 h postinjection) was 15.42 ± 2.07 % ID/g, the blood ([1]; 1 h postinjection) was 1.05 ± 0.19 % ID/g and the brain ([1]; 1 h postinjection) was 0.24 ± 0.04 % ID/g. For the same molecule, the heart ([1]; 1 h postinjection) was 1.34 ± 0.18 % ID/g, the kidney ([1]; 1 h postinjection) was 5.33 ± 1.10 % ID/g and the liver ([1]; 1 h postinjection) was 12.62 ± 1.80 % ID/g. For the same molecule, the lung ([1]; 1 h postinjection) was 6.75 ± 0.57 % ID/g, the “melanoma (tumor uptake)” value ([1]; 1 h postinjection) was 9.61 % ID/g and 9.61 ± 1.02 % ID/g and the muscle ([1]; 1 h postinjection) was 0.94 ± 0.14 % ID/g. The spleen ([1]; 1 h postinjection) was 3.00 ± 1.45 % ID/g, the “melanoma (tumor uptake)” value ([1]; 1 h postinjection, listed as Iso-[^99mTcOAADT]-(CH2)2-NEt2)) was 9.61 % ID/g and the mel/blood ([1]; 1 h postinjection) was 14.71 and 14.71 ± 2.40. The mel/liver ([1]; 1 h postinjection) was 0.75 and 0.75 ± 0.11, the mel/lung ([1]; 1 h postinjection) was 1.43 and 1.43 ± 0.15 and the mel/spleen ([1]; 1 h postinjection) was 3.65 and 3.65 ± 1.19. The in vivo tumor uptake ([1]; 3 h after administration) was 8.19 %ID/g, the in vivo tumor uptake ([1]; 6 h after administration) was 7.37 %ID/g and the Eyes ([1]; 6 h postinjection) was 11.09 ± 0.84 % ID/g. It also gave a blood ([1]; 6 h postinjection) of 0.25 ± 0.02 % ID/g, a brain ([1]; 6 h postinjection) of 0.05 ± 0.01 % ID/g and a heart ([1]; 6 h postinjection) of 0.18 ± 0.02 % ID/g. It also gave a kidney ([1]; 6 h postinjection) of 1.11 ± 0.13 % ID/g, a liver ([1]; 6 h postinjection) of 3.69 ± 0.48 % ID/g and a lung ([1]; 6 h postinjection) of 1.39 ± 0.41 % ID/g. The “melanoma (tumor uptake)” value ([1]; 6 h postinjection) was 7.05 % ID/g and 7.05 ± 1.23 % ID/g, the muscle ([1]; 6 h postinjection) was 0.07 ± 0.01 % ID/g and the spleen ([1]; 6 h postinjection) was 0.78 ± 0.85 % ID/g. The mel/blood ([1]; 6 h postinjection) was 47.25 and 47.25 ± 7.32, the mel/liver ([1]; 6 h postinjection) was 2.00 and 2.00 ± 0.23 and the mel/lung ([1]; 6 h postinjection) was 5.87 and 5.87 ± 1.79. The mel/spleen ([1]; 6 h postinjection) was 13.99 and 13.99 ± 5.17.
For `O=C1C[S][99Tc-]23(=[O])[S]CC[N+]2(CCCN2CCOCC2)CC[N]13` (centres unmarked) [Tc-Z3], the Eyes ([2]; 1 h postinjection) was 4.85 ± 0.63 % ID/g, the blood ([2]; 1 h postinjection) was 0.35 ± 0.11 % ID/g and the brain ([2]; 1 h postinjection) was 0.08 ± 0.02 % ID/g. The heart ([2]; 1 h postinjection) was 0.49 ± 0.11 % ID/g, the kidney ([2]; 1 h postinjection) was 2.62 ± 1.50 % ID/g and the liver ([2]; 1 h postinjection) was 17.75 ± 2.56 % ID/g. For the same molecule, the lung ([2]; 1 h postinjection) was 2.08 ± 0.60 % ID/g, the “melanoma (tumor uptake)” value ([2]; 1 h postinjection) was 2.36 ± 0.25 % ID/g and the muscle ([2]; 1 h postinjection) was 0.38 ± 0.11 % ID/g. It also gave a spleen ([2]; 1 h postinjection) of 3.19 ± 1.05 % ID/g, a mel/blood ([2]; 1 h postinjection) of 7.49 ± 2.79 and a mel/liver ([2]; 1 h postinjection) of 0.14 ± 0.03. The mel/lung ([2]; 1 h postinjection) was 1.26 ± 0.57, the mel/spleen ([2]; 1 h postinjection) was 0.85 ± 0.44 and the Eyes ([2]; 3 h postinjection) was 4.72 ± 0.62 % ID/g. For the same molecule, the blood ([2]; 3 h postinjection) was 0.10 ± 0.02 % ID/g, the brain ([2]; 3 h postinjection) was 0.01 ± 0.00 % ID/g and the heart ([2]; 3 h postinjection) was 0.14 ± 0.02 % ID/g. It also gave a kidney ([2]; 3 h postinjection) of 1.02 ± 0.13 % ID/g, a liver ([2]; 3 h postinjection) of 12.58 ± 1.4 % ID/g and a lung ([2]; 3 h postinjection) of 0.87 ± 0.35 % ID/g. The “melanoma (tumor uptake)” value ([2]; 3 h postinjection) was 2.74 ± 0.24 % ID/g, the muscle ([2]; 3 h postinjection) was 0.09 ± 0.02 % ID/g and the spleen ([2]; 3 h postinjection) was 3.16 ± 0.46 % ID/g. The mel/blood ([2]; 3 h postinjection) was 26.65 ± 4.9, the mel/liver ([2]; 3 h postinjection) was 0.22 ± 0.03 and the mel/lung ([2]; 3 h postinjection) was 3.24 ± 1.79. The mel/spleen ([2]; 3 h postinjection) was 0.87 ± 0.17.

Reference: patent US8747810B2, “Compositions and methods for imaging tissues, organs and tumors” (President and Fellows of Harvard College, priority 2009, dated 2014)
